# Like-named read-outs stand apart in the source and are kept apart here.
# What was measured:
# BRAF V600E = target: T1, BRAF V600E (Homo sapiens, UniProt P15056+Q96SW2, V600E); assay: BRAF V600E HiBiT Degradation Assay; format: cell-based
# T1 construct: knock-in of the HiBiT tag to the endogenous BRAF V600E locus; host or cells: A375.10 (A375 clonal line, CRISPR HiBiT knock-in at the endogenous BRAF V600E locus)
# Procedure: Compounds of this invention were tested for degradation of mutant BRAF V600E using the HiBiT assay, a luminescence-based assay for quantification of cellular protein levels using the Nano-Glo® HiBiT Lytic Detection System (Catalog No. N3050, Promega, Madison, WI USA). This assay utilizes the HiBiT tag on a protein of interest, which creates a luminescent signal in the presence of a complementing peptide and its substrate, the quantification of which is proportional to the amount of HiBiT-tagged protein in the cell.
# The cell line A375, which is homozygous for the BRAF V600E mutation, was purchased from ATCC (Catalog No. CRL-1619, Manassas, VA, USA). A375 cells were engineered to express HiBiT tagged BRAF V600E by CRISPR knock-in of the HiBiT tag to the endogenous BRAF V600E locus, followed by selection of a clonal population containing the appropriate knock-in (referred to here as cell line A375.10). A375.10 cells were maintained at 37° C. in an atmosphere of 5% CO2 in Dulbecco's modified Eagle Medium (DMEM) with high glucose (Catalog No. 11965092), supplemented with 10% fetal bovine serum (FBS; Catalog No. 10437036), and 10 mM HEPES (Catalog No. 15630130), all obtained from Thermofisher Scientific (Waltham, MA, USA). Cell culture flasks and 384-well microplates were acquired from VWR (Radnor, PA, USA).
# Test compounds were prepared by dissolving neat compounds in DMSO (Catalog No. D8418, Sigma-Aldrich, Inc., St. Louis, MO, USA) to generate 10 mM stock solutions, which were serially diluted (half log) in DMSO to generate an 11-point dose series (1000× final treatment concentration) in a 384-Well Low Dead Volume Microplate (Catalog No. LP-0200, Labcyte, San Jose, CA, USA). Using the Echo 550 Acoustic Liquid Handler (Labcyte), 30 nL of serially diluted compound solutions were dispensed in duplicate to 384-well TC-treated microplates (Catalog No. 3571, Corning, Glendale, CA, USA) and 30 nL of DMSO was dispensed to control wells. A375.10 cells resuspended in growth media without phenol red (Catalog No. 21063-029, Thermofisher Scientific) were then added to 384-well plates containing the 11-point dose series of compounds in duplicate (maximum 10 μM concentration for final treatment) at a density of 12,000 cells/well in 30 μl. Plates were then spun briefly, and cells were incubated with compound at 37° C. for 2 hours, 6 hours, or 24 hours.
# Following the appropriate treatment time, Nano-Glo® HiBiT Lytic Assay reagents were added to the cells per the manufacturer's instructions by adding 30 μl of reagent per well, and the luminescence signal was acquired by plate reader. Cells treated with DMSO only (no test compound treatment) were used as the negative control (N). Media only (no cells added) with Nano-Glo reagent addition was used as the background or positive control (P). The percent response of compound treated samples were calculated by subtracting out the background signal (P) and normalizing to the DMSO control (N) as follows.
# % Response=100×(Treated Signal−Average (P))/(Average (N)−Average (P)).
# Data were analyzed with a 4-parameter logistic fit to generate sigmoidal dose-response curves. The DC50 is the concentration of compound at which 50% of the cellular BRAF V600E has been degraded. The Emax, or maximum effect of each compound, represents the amount of residual protein remaining in the cell following compound treatment. The IP, or inflection point of the dose-response curve, is the concentration of compound at which 50% of the observed degradation response is achieved.
# The experiment was conducted at least once for each compound. If the experiment was conducted multiple times, the data shown in the table is the average of the two or more experiments.
# A375-NRAS^Q61K cells = assay: CTGlo Cell Viability Assay, A375-NRAS^Q61K (A375.11) cells, 96 hours; format: cell-based, human; details: A375.11 (A375-NRAS^Q61K) cells
# Procedure: Compounds of this invention were tested for their effect on the viability of A375-NRAS^Q61K cells by quantification of ATP using the CellTiter-Glo® 2.0 Cell Viability Assay (Catalog No. G9243, Promega, Madison, WI, USA). This assay produces a luminescent signal in the presence of ATP, which is indicative of metabolically active cells, making the luminescence readout proportional to the number of viable cells.
# A375-NRAS^Q61K cells (harboring BRAF homozygous V600E mutation and NRAS homozygous Q61K mutation) were purchased from ATCC (Catalog No. CRL-1619IG-2, Manassas, VA, USA). A375-NRAS^Q61K cells (also referred to here as A375.11) were maintained at 37° C. in an atmosphere of 5% CO2 in Dulbecco's modified Eagle Medium (DMEM) with high glucose (Catalog No. 11965092), supplemented with 10% fetal bovine serum (FBS; Catalog No. 10437036), and 10 mM HEPES (Catalog No. 15630130), all obtained from Thermofisher Scientific (Waltham, MA, USA). Cell culture flasks and 384-well microplates were acquired from VWR (Radnor, PA, USA).
# Test compounds were prepared by dissolving neat compounds in DMSO (Catalog No. D8418, Sigma-Aldrich, Inc., St. Louis, MO, USA) to generate 10 mM stock solutions, which were serially diluted (half log) in DMSO to generate an 11-point dose series (1000× final treatment concentration) in a 384-Well Low Dead Volume Microplate (Catalog No. LP-0200, Labcyte, San Jose, CA, USA). Using the Echo 550 Acoustic Liquid Handler (Labcyte), 50 nL of serially diluted compound solutions were dispensed in duplicate to 384-well TC-treated microplates (Catalog No. 3571, Corning, Glendale, CA, USA) and 50 nL of DMSO was dispensed to control wells. A375-NRAS^Q61K cells were resuspended in growth media and added to 384-well plates containing a […] of compounds in duplicate (maximum 10 μM concentration for final treatment) at a density of 250 cells/well in 50 μl. Cells were also plated to a 384-well plate with no compound treatment, to which CellTiter-Glo® reagent was added and luminescence was read right after plating to act as a baseline signal at time of plating (To). Plates treated with compound were then spun briefly, and cells were incubated with compound at 37° C. for 96 hours.
# After 96 hours compound treatment, CellTiter-Glo® reagent was added to the cells at 25 μl per well and luminescence was read out on the PHERAstar plate reader (BMG Labtech, Ortenberg, Germany). Cells treated with DMSO only (no test compound treatment) were used as the negative control (N). DMSO treated cells with no CellTiter-Glo® reagent added were used as the background or positive control (P). Viability was determined by subtracting out the average background signal (P) and normalized to the average untreated signal (N) set at 100%.
# Data were analyzed with a 4-parameter logistic fit to generate sigmoidal dose-response curves. The half-maximal inhibition of cell growth (GI50) is the concentration at which the fitted curve crosses 50%. The Emax, or maximum effect of each compound, represents the lowest % viability achieved following compound treatment.
# [1] = A375.10 cells, BRAF V600E, 2 hours, inflection point, read-out: HiBiT-Degradation A375.10 BRAF 2 hours IP
# [2] = A375.10 cells, BRAF V600E, 2 hours, read-out: HiBiT-Degradation A375.10 BRAF 2 hours DC50
# [3] = A375.10 cells, BRAF V600E, 2 hours, residual protein remaining
# T1 sequence (P15056 whole entry V600E): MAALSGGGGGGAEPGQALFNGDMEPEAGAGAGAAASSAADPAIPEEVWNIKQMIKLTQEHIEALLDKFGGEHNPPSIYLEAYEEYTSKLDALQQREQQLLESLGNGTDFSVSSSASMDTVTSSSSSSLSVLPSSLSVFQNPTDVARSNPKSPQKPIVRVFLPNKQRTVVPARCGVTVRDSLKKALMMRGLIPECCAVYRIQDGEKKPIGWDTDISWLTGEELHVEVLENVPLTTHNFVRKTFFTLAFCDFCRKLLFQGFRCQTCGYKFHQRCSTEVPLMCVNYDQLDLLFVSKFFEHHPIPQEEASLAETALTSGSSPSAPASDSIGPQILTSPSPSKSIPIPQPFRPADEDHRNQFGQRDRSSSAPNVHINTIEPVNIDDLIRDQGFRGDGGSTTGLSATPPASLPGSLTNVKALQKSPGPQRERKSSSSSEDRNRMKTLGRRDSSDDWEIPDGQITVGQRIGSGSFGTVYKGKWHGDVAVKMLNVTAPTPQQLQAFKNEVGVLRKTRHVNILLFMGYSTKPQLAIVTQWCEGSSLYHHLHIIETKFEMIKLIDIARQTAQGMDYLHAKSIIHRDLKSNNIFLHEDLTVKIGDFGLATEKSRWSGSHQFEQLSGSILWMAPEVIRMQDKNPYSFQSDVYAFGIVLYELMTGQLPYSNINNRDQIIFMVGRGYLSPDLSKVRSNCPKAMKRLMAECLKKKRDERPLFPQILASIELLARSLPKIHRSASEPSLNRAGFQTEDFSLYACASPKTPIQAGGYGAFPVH
# T1 sequence (Q96SW2 whole entry): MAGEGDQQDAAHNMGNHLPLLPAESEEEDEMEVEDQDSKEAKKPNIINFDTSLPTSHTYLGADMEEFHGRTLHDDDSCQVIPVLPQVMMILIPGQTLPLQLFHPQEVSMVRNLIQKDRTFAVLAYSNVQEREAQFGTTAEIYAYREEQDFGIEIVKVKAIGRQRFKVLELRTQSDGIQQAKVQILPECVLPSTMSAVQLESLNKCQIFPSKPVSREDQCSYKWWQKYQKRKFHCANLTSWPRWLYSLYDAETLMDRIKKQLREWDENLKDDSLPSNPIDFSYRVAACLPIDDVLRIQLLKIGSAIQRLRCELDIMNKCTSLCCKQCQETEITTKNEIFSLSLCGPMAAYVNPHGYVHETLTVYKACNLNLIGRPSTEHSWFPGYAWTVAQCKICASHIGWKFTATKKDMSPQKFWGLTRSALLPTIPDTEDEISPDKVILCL
# T1 sequence (Q16531 whole entry partner): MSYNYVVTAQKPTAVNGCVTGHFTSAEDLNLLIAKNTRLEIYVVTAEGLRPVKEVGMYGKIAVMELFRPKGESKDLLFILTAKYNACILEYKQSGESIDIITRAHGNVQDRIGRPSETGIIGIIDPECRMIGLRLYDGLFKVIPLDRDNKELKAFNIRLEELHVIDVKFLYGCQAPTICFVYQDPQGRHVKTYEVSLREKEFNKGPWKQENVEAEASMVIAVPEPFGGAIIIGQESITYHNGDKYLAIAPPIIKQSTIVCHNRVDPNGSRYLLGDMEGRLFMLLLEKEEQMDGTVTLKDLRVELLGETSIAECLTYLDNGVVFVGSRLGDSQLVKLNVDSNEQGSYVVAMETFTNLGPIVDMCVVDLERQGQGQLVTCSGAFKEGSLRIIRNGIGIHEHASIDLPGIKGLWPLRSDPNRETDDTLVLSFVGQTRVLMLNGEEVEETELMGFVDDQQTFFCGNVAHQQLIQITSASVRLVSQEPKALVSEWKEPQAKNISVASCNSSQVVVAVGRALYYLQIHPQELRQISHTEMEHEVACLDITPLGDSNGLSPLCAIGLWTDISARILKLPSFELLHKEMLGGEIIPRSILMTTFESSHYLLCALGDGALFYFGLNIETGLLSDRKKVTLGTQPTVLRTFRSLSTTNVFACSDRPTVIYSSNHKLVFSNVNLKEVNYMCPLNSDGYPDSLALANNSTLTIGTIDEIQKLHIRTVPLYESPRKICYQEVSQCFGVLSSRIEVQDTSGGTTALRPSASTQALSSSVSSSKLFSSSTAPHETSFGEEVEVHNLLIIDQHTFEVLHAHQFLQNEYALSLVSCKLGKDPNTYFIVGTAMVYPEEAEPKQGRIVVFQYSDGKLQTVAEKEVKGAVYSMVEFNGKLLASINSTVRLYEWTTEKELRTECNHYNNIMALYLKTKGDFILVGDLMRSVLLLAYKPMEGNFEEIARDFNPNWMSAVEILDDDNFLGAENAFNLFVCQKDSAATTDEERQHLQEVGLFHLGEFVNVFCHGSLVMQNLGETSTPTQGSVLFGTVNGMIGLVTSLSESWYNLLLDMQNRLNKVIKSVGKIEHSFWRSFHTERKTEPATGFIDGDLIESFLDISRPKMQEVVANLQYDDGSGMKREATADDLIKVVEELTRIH
HiBiT-Degradation A375.10 BRAF 2 hours Emax (BRAF V600E),DC50 (BRAF V600E; [1]) [µM],DC50 (BRAF V600E; [2]) [µM],"DC50 (BRAF V600E; A375.10 cells, BRAF V600E, 6 hours, inflection point, read-out: HiBiT-Degradation A375.10 BRAF 6 hours IP) [µM]","DC50 (BRAF V600E; A375.10 cells, BRAF V600E, 6 hours, read-out: HiBiT-Degradation A375.10 BRAF 6 hours DC50) [µM]","HiBiT-Degradation A375.10 BRAF 6 hours Emax (BRAF V600E; A375.10 cells, BRAF V600E, 6 hours, residual protein remaining)","HiBiT-Degradation A375.10 BRAF 24 hours Emax (BRAF V600E; A375.10 cells, HiBiT, BRAF V600E, 24 hours)","DC50 (BRAF V600E; A375.10 cells, HiBiT, BRAF V600E, 24 hours, read-out: HiBiT-Degradation A375.10 BRAF 24 hours DC50) [µM]","DC50 (BRAF V600E; A375.10 cells, HiBiT, BRAF V600E, 24 hours, read-out: HiBiT-Degradation A375.10 BRAF 24 hours IP) [µM]",GI50 (A375-NRAS^Q61K cells) [µM],HiBiT-Degradation A375.10 BRAF 2 hours Emax (BRAF V600E; [3]),"Emax (BRAF V600E; A375.10 cells, BRAF V600E, 2 hours, residual protein remaining, read-out: HiBiT-Degradation A375.10 BRAF 2 hours Emax) [%]",SMILES,CTGlo A375.11 96 hours Emax (A375-NRAS^Q61K cells; lowest % viability achieved),"Emax (A375-NRAS^Q61K cells; Homo sapiens, 96 h, lowest % viability achieved) [%]"
*** (<=50%),< 1,< 1,< 1,< 1,*** (<=50%),*** (<=50%),< 1,< 1,1 to 10,–,–,"CCN(C)S(=O)(=O)Nc1ccc(F)c(Oc2ccc3ncn([C@@H]4COC5(CCN(C6CCC(c7cc8c(cc7F)c(N7CCC(=O)NC7=O)nn8C)CC6)CC5)C4)c(=O)c3c2F)c1C#N (single isomer, unassigned) [Compound 47]",** (<90% and >50%),–
–,< 1,< 1,–,–,–,–,–,–,1 to 10,** (<90% and >50%),–,"CCN(C)S(=O)(=O)Nc1ccc(F)c(Oc2ccc3ncn([C@H]4COC5(CCN(C6CCC(c7ccc(NC8CCC(=O)NC8=O)cc7F)CC6)CC5)C4)c(=O)c3c2F)c1C#N (single isomer, unassigned) [Compound 51]",*** (<=50%),–
–,< 1,< 1,–,–,–,–,–,–,1 to 10,*** (<=50%),–,"CCN(C)S(=O)(=O)Nc1ccc(F)c(Oc2ccc3ncn([C@@H]4COC5(CCN(C6CCC(c7ccc(NC8CCC(=O)NC8=O)cc7F)CC6)CC5)C4)c(=O)c3c2F)c1C#N (single isomer, unassigned) [Compound 53]",** (<90% and >50%),–
–,< 1,< 1,–,–,–,–,–,–,> 10,–,< 50,"CCN(C)S(=O)(=O)Nc1ccc(F)c(Nc2ccc3ncn([C@H]4COC5(CCN(C6CCC(c7ccc(NC8CCC(=O)NC8=O)cc7F)CC6)CC5)C4)c(=O)c3c2)c1C#N (single isomer, unassigned) [Compound 56]",–,50 to 90

# From patent US20260297060A1, “COMPOUNDS FOR THE DEGRADATION OF MUTANT BRAF” (C4 THERAPEUTICS, INC., priority 2023, published 2026)
